What was measured:
DRAK1 = target: T1, DRAK1 (Homo sapiens, UniProt Q9UEE5); test: kinase binding screen (kinase-tagged T7 phage, qPCR), % Ctrl
T1 sequence (Q9UEE5 1-414): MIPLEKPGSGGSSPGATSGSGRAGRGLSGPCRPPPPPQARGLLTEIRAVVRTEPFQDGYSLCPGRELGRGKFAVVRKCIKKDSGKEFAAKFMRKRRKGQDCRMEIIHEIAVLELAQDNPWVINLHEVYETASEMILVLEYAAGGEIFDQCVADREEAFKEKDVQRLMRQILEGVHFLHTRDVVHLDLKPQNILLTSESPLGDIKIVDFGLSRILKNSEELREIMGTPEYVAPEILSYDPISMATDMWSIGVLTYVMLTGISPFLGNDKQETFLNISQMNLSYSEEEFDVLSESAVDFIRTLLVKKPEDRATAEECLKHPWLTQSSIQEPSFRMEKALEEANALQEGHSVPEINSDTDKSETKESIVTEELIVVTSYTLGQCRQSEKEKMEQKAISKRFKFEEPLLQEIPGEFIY
Description: (§1) Percentage kinase inhibition at a set concentration was performed by methods well known in the prior art (Fabian, M. A. et al. Nat. Biotechnol. 2005, 23, 329; Karaman et al. (2008) Nat. Biotechnol. […], 26, 127). Briefly, kinase-tagged T7 phage strains were grown in parallel in 24-well blocks in an E. coli host derived from the BL21 strain. E. coli were grown to log-phase and infected with T7 phage from a frozen stock (multiplicity of infection=0.4) and incubated with shaking at 32° C. until lysis (90-150 minutes). The lysates were centrifuged (6,000×g) and filtered (0.2 μm) to remove cell debris. […] The liganded beads were blocked with excess biotin and washed with blocking buffer (SeaBlock (Pierce); 1% BSA, 0.05% Tween 20, 1 mM DTT) to remove unbound ligand and to reduce non-specific phage binding. […] Test compounds were prepared as 40× stocks in 100% DMSO and directly diluted into the assay. All reactions were performed in polypropylene 384-well plates in a final volume of 0.04 mL. […] The kinase concentration in the eluates was measured by qPCR.

PIK3C2G = target: T2, PIK3C2G (Homo sapiens, UniProt O75747); test: as above
T2 sequence (O75747 1-1486): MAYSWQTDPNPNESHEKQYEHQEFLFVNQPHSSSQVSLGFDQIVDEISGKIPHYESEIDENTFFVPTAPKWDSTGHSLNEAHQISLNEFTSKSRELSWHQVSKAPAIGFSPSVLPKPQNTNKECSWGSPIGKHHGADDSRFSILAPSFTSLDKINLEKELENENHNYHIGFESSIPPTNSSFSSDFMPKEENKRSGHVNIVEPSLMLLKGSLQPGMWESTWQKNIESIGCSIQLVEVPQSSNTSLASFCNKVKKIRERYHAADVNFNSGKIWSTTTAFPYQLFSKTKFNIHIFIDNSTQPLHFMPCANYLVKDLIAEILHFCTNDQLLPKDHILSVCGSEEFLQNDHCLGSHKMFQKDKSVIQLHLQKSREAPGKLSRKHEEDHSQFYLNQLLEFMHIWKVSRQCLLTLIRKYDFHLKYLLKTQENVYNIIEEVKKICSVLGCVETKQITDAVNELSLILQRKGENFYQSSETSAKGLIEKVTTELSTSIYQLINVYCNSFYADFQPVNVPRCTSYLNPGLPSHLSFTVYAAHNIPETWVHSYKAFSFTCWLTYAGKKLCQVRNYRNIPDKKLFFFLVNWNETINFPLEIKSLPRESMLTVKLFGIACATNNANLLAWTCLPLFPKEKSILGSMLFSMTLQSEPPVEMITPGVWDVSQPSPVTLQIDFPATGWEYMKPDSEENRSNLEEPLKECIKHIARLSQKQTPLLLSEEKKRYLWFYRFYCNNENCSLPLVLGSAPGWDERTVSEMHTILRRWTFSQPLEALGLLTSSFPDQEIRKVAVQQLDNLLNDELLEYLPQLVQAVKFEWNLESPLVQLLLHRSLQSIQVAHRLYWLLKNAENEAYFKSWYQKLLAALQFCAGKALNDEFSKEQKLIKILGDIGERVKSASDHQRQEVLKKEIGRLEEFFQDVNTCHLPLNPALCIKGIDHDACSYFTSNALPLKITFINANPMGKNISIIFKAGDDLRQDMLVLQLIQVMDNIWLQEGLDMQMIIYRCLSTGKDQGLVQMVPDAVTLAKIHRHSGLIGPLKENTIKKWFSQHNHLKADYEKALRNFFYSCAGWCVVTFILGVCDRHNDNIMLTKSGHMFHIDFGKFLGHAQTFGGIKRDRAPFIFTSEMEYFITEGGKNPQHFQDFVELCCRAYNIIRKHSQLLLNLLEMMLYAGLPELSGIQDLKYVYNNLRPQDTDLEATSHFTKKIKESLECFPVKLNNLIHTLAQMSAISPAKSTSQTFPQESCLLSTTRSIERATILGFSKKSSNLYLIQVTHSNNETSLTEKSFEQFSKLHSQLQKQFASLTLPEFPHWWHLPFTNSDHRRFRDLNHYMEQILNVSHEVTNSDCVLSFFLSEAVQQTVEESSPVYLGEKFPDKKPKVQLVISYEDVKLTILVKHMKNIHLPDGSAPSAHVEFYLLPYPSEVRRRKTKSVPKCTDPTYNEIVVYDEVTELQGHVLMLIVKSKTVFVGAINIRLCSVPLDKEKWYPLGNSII
Description: as §1

| remaining activity at 10 µM (DRAK1; 10 μM) | remaining activity at 10 µM (PIK3C2G; 10 μM) | SMILES | remaining activity at 1 µM (DRAK1) | remaining activity at 1 µM (PIK3C2G) |
| --- | --- | --- | --- | --- |
| 86% | 80% | Nc1nc2c(-c3cc(Br)c(Br)[nH]3)nccc2[nH]1 [Ageladine A, ageladine A, reference compound] | 78% | 99% |
| – | – | Nc1nc2c(-c3ccccn3)nccc2[nH]1 [drawing 35, 4-(pyrid-2-yl)-1H-imidazo[4,5-c]pyridin-2-amine] | 56% | 66% |
| – | – | Nc1nc2c(-c3cnc4ccccc4c3)nccc2[nH]1 [drawing 36, 4-(quinolin-3-yl)-1H-imidazo[4,5-c]pyridin-2-amine] | 100% | 30% |
